Active and inactive are the calls of the source.

Test [1] deals with T1, 1-phosphatidylinositol 4,5-bisphosphate phosphodiesterase gamma-1 (Homo sapiens, UniProt P19174).
T1 sequence (P19174 whole entry): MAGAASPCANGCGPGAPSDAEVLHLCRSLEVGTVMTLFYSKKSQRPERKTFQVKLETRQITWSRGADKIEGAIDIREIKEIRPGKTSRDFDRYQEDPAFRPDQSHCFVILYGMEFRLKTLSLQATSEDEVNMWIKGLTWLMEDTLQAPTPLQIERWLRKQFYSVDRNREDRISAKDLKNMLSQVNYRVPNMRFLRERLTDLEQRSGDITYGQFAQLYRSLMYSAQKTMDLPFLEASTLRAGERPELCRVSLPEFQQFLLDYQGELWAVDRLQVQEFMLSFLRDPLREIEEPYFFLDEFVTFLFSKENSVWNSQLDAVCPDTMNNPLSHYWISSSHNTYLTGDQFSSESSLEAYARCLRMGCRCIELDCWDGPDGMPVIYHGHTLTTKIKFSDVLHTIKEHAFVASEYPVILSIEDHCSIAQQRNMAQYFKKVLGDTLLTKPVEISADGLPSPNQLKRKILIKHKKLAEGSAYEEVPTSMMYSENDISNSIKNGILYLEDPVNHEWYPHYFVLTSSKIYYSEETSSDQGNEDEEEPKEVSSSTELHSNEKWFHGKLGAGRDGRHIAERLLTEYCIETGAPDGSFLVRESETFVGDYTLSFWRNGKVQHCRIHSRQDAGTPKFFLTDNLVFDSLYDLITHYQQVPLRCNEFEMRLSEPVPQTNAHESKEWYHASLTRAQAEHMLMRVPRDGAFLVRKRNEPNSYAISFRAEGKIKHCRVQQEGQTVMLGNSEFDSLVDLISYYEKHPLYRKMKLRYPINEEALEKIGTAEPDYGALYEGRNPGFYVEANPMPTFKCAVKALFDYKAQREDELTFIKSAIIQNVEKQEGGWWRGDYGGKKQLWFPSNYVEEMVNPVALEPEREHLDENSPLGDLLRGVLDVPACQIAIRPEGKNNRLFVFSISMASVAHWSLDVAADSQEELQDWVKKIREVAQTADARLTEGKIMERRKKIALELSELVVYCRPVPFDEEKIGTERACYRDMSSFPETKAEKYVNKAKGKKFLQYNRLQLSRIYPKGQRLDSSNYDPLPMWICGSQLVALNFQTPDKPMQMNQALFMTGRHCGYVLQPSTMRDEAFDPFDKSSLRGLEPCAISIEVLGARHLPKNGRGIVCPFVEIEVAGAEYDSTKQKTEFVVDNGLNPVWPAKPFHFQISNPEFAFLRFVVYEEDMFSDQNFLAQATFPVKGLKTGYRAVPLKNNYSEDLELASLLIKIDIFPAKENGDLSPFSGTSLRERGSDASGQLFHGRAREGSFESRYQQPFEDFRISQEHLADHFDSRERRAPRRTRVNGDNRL
The test is described as follows: Counterscreen for inhibitors of phospholipase C isozymes (PLC-B3): Fluorescence-based biochemical high throughput dose response assay to identify inhibitors of phospholipase C isozymes (PLC-gamma1).

For test [2], the target named is Heat shock protein HSP 90-alpha (Homo sapiens, UniProt P07900). It is filed as functional, organism-based.
Test [3] deals with T2, Sentrin-specific protease 8 (Homo sapiens, UniProt Q96LD8).
T2 sequence (Q96LD8 whole entry): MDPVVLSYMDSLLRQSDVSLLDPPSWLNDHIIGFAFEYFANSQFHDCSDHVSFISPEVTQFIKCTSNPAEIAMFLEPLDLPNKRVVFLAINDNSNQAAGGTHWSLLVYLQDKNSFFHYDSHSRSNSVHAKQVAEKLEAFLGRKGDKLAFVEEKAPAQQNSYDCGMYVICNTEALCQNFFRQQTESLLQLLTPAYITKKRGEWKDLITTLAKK
Type of test: functional.

For test [4], the target named is T3, Sentrin-specific protease 7 (Homo sapiens, UniProt Q9BQF6).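 Also: Luminescence-based dose-response confirmation of ultra-high-throughput screening hits, measuring inhibition of SENP7.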
T3 sequence (Q9BQF6 whole entry): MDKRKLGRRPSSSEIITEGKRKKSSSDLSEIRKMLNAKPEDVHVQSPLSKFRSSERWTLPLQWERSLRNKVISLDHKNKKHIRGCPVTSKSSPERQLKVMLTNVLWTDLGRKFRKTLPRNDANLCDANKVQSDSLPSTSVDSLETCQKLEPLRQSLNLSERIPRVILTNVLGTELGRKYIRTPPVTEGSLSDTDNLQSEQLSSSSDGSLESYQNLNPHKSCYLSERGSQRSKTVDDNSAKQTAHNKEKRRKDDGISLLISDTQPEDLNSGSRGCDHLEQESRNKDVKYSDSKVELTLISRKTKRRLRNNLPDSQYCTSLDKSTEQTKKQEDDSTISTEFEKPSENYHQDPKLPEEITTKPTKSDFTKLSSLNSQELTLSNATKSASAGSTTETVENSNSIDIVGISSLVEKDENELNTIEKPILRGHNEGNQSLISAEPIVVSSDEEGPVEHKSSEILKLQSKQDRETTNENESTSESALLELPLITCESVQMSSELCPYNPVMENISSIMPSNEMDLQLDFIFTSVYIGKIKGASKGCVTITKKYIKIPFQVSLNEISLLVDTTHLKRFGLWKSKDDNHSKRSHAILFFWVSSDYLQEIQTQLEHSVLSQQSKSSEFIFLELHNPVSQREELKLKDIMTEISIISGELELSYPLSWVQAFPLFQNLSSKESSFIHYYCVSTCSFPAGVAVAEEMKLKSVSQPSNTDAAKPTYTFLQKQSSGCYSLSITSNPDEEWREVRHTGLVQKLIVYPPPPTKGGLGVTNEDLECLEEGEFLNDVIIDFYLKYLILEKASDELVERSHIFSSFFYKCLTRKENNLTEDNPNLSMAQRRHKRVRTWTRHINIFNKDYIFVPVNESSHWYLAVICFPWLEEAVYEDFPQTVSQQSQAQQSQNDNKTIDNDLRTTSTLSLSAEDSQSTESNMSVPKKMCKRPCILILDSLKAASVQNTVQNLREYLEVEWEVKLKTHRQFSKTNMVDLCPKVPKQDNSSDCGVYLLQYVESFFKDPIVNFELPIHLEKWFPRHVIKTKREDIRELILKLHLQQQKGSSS
It is filed as functional.

In general, IC50 refers to the concentration that gives 50% inhibition. On to `O=C(NN1C(=O)CSC1=S)C(=O)NN1C(=O)CSC1=S`, for which the IC50 in test [1] was 4.36 µM (active).

Broadly, the AC50 is the concentration at which the activity in the assay is half-maximal. `COC(=O)C1CN(C#N)N(c2ccc(Cl)cc2)C12c1ccccc1-c1ccccc12` (stereo not drawn): in test [2], the AC50 is 2.75 µM (active).

For the compound `Cc1ccc2[nH]c(/C(C#N)=C/c3ccc(O)c(O)c3)nc2c1`, the IC50 in test [3] was 24.3 µM (active); in test [4], 9.9 µM (active).

In the case of `CN(C)S(=O)(=O)Oc1cccc(C(=O)Nc2ccc(Cl)c(Cl)c2)c1`, the IC50 was 19.6 µM (active) in test [3] and 5.38 µM (active) in test [4].

Turning to `O=C1NC(=S)S/C1=C\C=C\c1ccc([N+](=O)[O-])o1`, the AC50 in test [2] is 1.73 µM (active). In test [1], the IC50 is > 122 µM (inactive).

Values taken from ChEMBL document CHEMBL1201862, “PubChem BioAssay data set” (2004).
